According to paper PMC7533260, “Design and tests of prospective property predictions for novel antimalarial 2-aminopropylaminoquinolones” (Journal of Computer-Aided Molecular Design, 2020):
pIC50, pKi: −log10 of the molar value.

Legend:
[1] = target: full-length enzyme from P. falciparum (PfDHODH); set-up: method as in PMID 7909690; details: after solubilization in Triton X-100; cited from earlier work
[2] = target: truncated enzyme (PfDHODH); set-up: method as in PMID 16510978; details: assayed under similar conditions; cited from earlier work
[3] = target: s-RrDHODH; set-up: method as in PMID 16510978; details: read-out: Ki, s-RrDHODH from rat; cited from earlier work
[4] = target: human enzyme (DHODH); set-up: method as in PMID 16510978; details: cited from earlier work
[5] = target: T1, s-PfDHODH (Plasmodium falciparum, UniProt Q08210); test: Inhibition of s-PfDHODH in vitro (Tres Cantos laboratory); details: read-out: s-PfDHODH in vitro IC50; assayed at the Tres Cantos laboratory
T1 sequence (Q08210 158-569 limits assumed): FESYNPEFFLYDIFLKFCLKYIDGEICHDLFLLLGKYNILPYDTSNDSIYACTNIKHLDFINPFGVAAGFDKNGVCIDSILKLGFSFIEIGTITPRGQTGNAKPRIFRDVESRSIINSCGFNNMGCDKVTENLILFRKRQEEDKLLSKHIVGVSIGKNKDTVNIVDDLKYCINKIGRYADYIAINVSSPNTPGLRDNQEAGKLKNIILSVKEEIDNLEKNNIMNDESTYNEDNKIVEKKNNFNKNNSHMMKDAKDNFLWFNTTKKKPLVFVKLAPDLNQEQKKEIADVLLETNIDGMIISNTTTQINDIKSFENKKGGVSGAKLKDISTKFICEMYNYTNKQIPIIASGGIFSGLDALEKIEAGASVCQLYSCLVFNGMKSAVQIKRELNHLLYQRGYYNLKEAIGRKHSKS
Description: The literature data set used to build our PfDHODH inhibition models was based on in vitro assays carried out using the truncated, soluble form of the enzyme introduced by Baldwin et al. [10].

[6] = tested on: intact PfDHODH; test: Rescue from growth inhibition by transfection with ScDHODH (Dd2attB_yeastDHODH vs parental Dd2attB); format: cell-based, Plasmodium falciparum; details: P. falciparum in blood culture; Tres Cantos, previously unpublished
Description: Fortunately, there is a way to address this question, though the method is somewhat indirect. P. falciparum parasites engineered to express DHODH from the yeast Saccharamyces cerevisiae (ScDHODH) use fumarate as an oxidizing agent instead of ubiquinone, so their growth is not inhibited by (i.e., they are “rescued from”) inhibitors that compete with ubiquinone. Painter et al. used this technique to validate PfDHODH as an antimalarial drug target.
Unbeknownst to the Simulations Plus and U.C. Riverside groups, the Tres Cantos group had already tested several 2-aminoquinolone actives from the GSK antimalarial data set for rescue by ScDHODH transfection. […] An additional sixteen 2-amino-4-quinolones having different bridging groups were also assayed; three of these were clearly subject to rescue, whereas three yielded ambiguous results.
The Dd2 cell line containing yeast dihydroorotate dehydrogenase (DHODH) and its parental strain were cultured as described in 4.3.1 and potency of compounds determined following procedures outlined in 4.3.2. The ScURA1 gene from Saccharomyces cerevisiae was amplified from genomic DNA and cloned into the pLN-14 vector. The P. falciparum Dd2attB strain was transfected by electroporation, and stable transfectants were selected with blasticidin. Both the Dd2attB_yeastDHODH strain and its parental strain, Dd2attB, were used in these assays to determine if parasite growth inhibition was mediated by inhibition of PfDHODH following rationale previously described in Painter et al..

[7] = tested on: P. falciparum 3D7 (chloroquine-susceptible); test: XC50 in asynchronous blood culture, [3H]hypoxanthine incorporation, strain 3D7; format: cell-based; details: Plasmodium falciparum, concentration required to reduce parasite growth rate by 50%
Experimental: (§1) Antimalarial activity in blood culture was determined as previously described at the University of California, Riverside, under conditions essentially identical to those used by GSK [19].
(§2) P. falciparum 3D7A and Dd2 strains used in this study were obtained from the Malaria Research and Reference Reagent Resource Center (MR4). Parasites were grown in human erythrocytes (obtained from a transfusion blood bank in Madrid, Spain) with Albumax II medium as previously described. RPMI 1640 medium (Gibco) was supplemented with 0.5% Albumax II (Invitrogen), 2% D-sucrose (Sigma-Aldrich), 0.3% glutamine (Sigma-Aldrich), and 150 µM hypoxanthine (Sigma-Aldrich). Cultures were maintained at 37°C at an atmosphere of 5% O2, 5% CO2, and 90% N2.
(§3) Parasite growth inhibition assays and 50% inhibitory concentration (XC50) determinations were carried out by following standard methods using the [^3H]hypoxanthine incorporation assay. Briefly, cultures with 0.5% parasitemia and 2% hematocrit were incubated with the drug as described for 48 h. After this period, parasites were harvested and the amount of incorporated radiolabeled precursor was determined. Radioactivity was added 24 h before harvesting of the parasites.

[8] = tested on: P. falciparum Dd2 (chloroquine-resistant); test: XC50 in asynchronous blood culture, [3H]hypoxanthine incorporation, strain Dd2; format: cell-based, Plasmodium falciparum; details: for IC50: Plasmodium falciparum, DD2, concentration required to reduce parasite growth rate by 50%, chloroquine-resistant strain, asynchronous blood culture; for Resistance ratio (±): ratio of XC50 between resistant (Dd2) and susceptible (3d7) strains
Experimental: as §1, §2, §3

| SMILES | rescue of parasites from growth inhibition by ScDHODH transfection [6] | IC50 [7] [µM] | IC50 [8] [µM] | Resistance ratio (±) [8] | further results |
| --- | --- | --- | --- | --- | --- |
| O=C1C(O)=C([C@H]2CC[C@H](c3ccc(Cl)cc3)CC2)C(=O)c2ccccc21 [Atovaquone] | – | – | – | – | pKi [1]: 4.57; pKi [2]: < 3.30; pKi [3]: ~7.10; pKi [4]: ~5.70 |
| O=C(O)C(O)C(=O)O [CID 44,537,350] | – | – | – | – | pIC50 [5]: 6.07 |
| O=c1cc(NCC2(CNCc3cn(Cc4ccccc4)c4ccccc34)CCCCC2)[nH]c2ccccc12 [CID 10300864] | rescued | – | – | – | – |
| CCOc1c(CNCCCNc2cc(=O)c3ccccc3[nH]2)cc(Br)cc1OC [CID 44373601] | not rescued | – | – | – | – |
| O=c1cc(NC[C@H]2CCC[C@@H]2NC2CCCc3c2[nH]c2ccccc32)[nH]c2ccccc12 (stereo partly drawn) [CID 44533954] | not rescued | – | – | – | – |
| O=c1cc(NCCCNCc2sc(Br)nc2Br)[nH]c2ccccc12 [CID 44534653] | rescued | – | – | – | – |
| COc1ccc2[nH]c(NCC3(CNC4CCNc5ccccc54)CCCC3)cc(=O)c2c1 (stereo not drawn) [Compound 11c, 6-methoxy-2-(1-((1,2,3,4-tetrahydroquinolin-4-yl)aminomethyl)cyclopentyl)methylamino-1H-quinolin-4-one] | – | 0.37 | 1.78 | 4.8 | – |
| Cn1cc(CNCC2(CNc3cc(=O)c4ccccc4[nH]3)CCCC2)n(C)c1=O [Compound 12a, 2-(1-((1,3-dimethyl-2-oxo-imidazol-4-yl)methylaminomethyl)cyclopentyl)methylamino-1H-quinolin-4-one] | – | 10 | 46 | 4.6 | – |
| Cn1cc(CNCC2(CNc3cc(=O)c4cc(Cl)ccc4[nH]3)CCCC2)n(C)c1=O [Compound 12b, 6-chloro-2-(1-((1,3-dimethyl-2-oxo-imidazol-4-yl)methylaminomethyl)cyclopentyl)methylamino-1H-quinolin-4-one] | – | 1.61 | 6.4 | 3.9 | – |
